What all share (assay type): physicochemical
A short description of data set [1]: spectral properties of free dyes (absorbance, fluorescence emission, ε, Φ, intrinsic brightness). The following applies: free dye; 10 mM HEPES pH 7.3.
Data set [2] in a line: relative singlet oxygen quantum yield of free dyes. The following applies: free dye.
Data set [3] is described as follows: photobleaching of free dyes in vitro.

SMILES strings stand for the structures.

As to `[2H]C1([2H])N(c2ccc3c(-c4ccccc4C(=O)[O-])c4ccc(=[N+]5C([2H])([2H])C([2H])([2H])C5([2H])[2H])cc-4oc3c2)C([2H])([2H])C1([2H])[2H]` [Compound 16, 2-(3,6-Bis(azetidin-1-yl-d6)xanthylium-9-yl)benzoate], in data set [1], the “extinction coefficient (ε) compared to nondeuterated parent” value is “no improvement” and the “fluorescence quantum yield (Φ) compared to nondeuterated parent” value was “no improvement”. In data set [2], the “singlet oxygen (1O2) quantum yield compared to nondeuterated parent” value is recorded as “significantly lower”. The “photobleaching / in vitro photostability compared to nondeuterated parent” value in data set [3] (free dye, 10 mM HEPES pH 7.3) is reported as “no improvement”. Further, the “blue-shift of fluorescence emission during photobleaching due to dealkylation” value in data set [3] (spectra taken periodically during photobleaching) amounted to 4 nm.

These data come from patent US12552938B2, “Deuterated fluorophores” (HOWARD HUGHES MEDICAL INSTITUTE, priority 2018, dated 2026).
